Source: a melting point compilation (Tetko et al.; mined from patent text by program, amines drawn as free bases though some values may be those of a salt)

melting point [°C] | SMILES
48 to 50 | CC1(CO)Cc2ccccc2C1(C)C (stereo unspecified)
294 to 295 | Cn1c(=O)c(=O)[nH]c2ccc3ccccc3c21
72 to 73 | CC(=O)NCCc1ccc(CO)cc1
94 to 100 | COc1cccc2c(CCC3CC(=O)CCC3=O)cccc12 (stereo unspecified)
190 to 192 | CCCSC1=NSc2cc(C)cnc2N1Cc1ccc(-c2ccccc2C#N)cc1
210 | CC(=O)OCC(=O)C1(OC(=O)c2ccccc2)CCC2C3CC(C)C4=CC(=O)CCC4(C)C3C(O)CC21C (stereo unspecified)
68 | Cc1ccc2c(ccn2C)c1O
143 to 146 | CC1(C)C2CC[C@]1(CS(=O)(=O)NCCNCC1COc3ccccc3O1)C(=O)C2 (stereo partly specified)
83 to 84 | CCCN(CCC)C(=O)CNc1nc(-c2ccccc2)nc(C)c1CC
150 to 154 | COc1ccc(CCCOc2ccc(C(=O)O)cc2)cc1OC
167 to 168 | CCCCn1c(=O)c2nn(S(=O)(=O)c3ccc4ccccc4c3)cc2n(CCCC)c1=O
146 to 147 | Cc1c(F)c(F)c(C(=O)N[C@@H](C)C(C)C)c(F)c1F
65 to 67 | O=C(c1cc(C(F)(F)F)cc(C(F)(F)F)c1)N1CCN(C(=O)CNC2CCN(Cc3ccccc3)CC2)C(c2ccccc2)C1 (racemic)
168 to 170 | CN1CCN(C2=Nc3ccccc3Nc3c(Cl)cccc32)CC1
150 to 153 | COc1ccc(Cn2cc3nc(Cl)nc(OCc4ccccc4)c3n2)cc1
178 to 179 | CC(CNC(=O)C=CC=Cc1ccccc1)C(=O)NO (stereo unspecified)
85 to 90 | O=c1c2ccccc2ccn1CCC#Cc1ccccn1
50 to 52 | CCN(CC)C(=O)C(C)(C)n1cc(C)c(-c2ccccc2)n1
100 to 105 | Clc1ccc(C(c2ccc(Cl)cc2)N2CCN(C(c3ccccc3)c3c[nH]c4cccc(Cl)c34)CC2)cc1 (stereo unspecified)
142 to 147 | CNc1cc(CC(C#N)=CNc2ccccc2)cc(NC)c1Cl
239 to 240 | CC(C)n1nc(-c2cnc(N)nc2-c2ccccc2F)ccc1=O
166 | Cc1nc(NC(=O)c2cnn3c(C(F)(F)F)cc(-c4ccc(C(F)(F)F)cc4)nc23)sc1S(=O)(=O)NCCO
175 to 176 | COc1ccc(-c2c(C(C)=O)c(CSc3nccn3C)nc3cc(OC)c(OC)cc23)cc1OC
208 to 211 | N=C(N)NCCC[C@H](NC(=O)c1ccccc1SSc1ccccc1C(=O)N[C@@H](CCCNC(=N)N)C(=O)O)C(=O)O
256 | CNC(=O)c1ccc(N2CCN(Cc3cc4c(c(OC)c3)OC(C)C(=O)N4)CC2)cc1 (stereo unspecified)
67 to 69 | COc1ccc(-n2c(C)ccc2C)c(F)c1
162 | COc1ccc(-c2nn(Cc3cccnc3)c(=O)cc2-c2ccncc2)cc1
133 to 135 | CC1(c2ccccc2)Cc2cc(CC(=O)O)c(Cl)c(Cl)c2C1=O (stereo unspecified)

The next lines start with the compound.

SMILES | melting point [°C]
O=C(O)Cc1cccc(C(=O)c2ccc(O)cc2)c1 | 147 to 149
CCc1ccc(C(=O)c2cccc(F)c2)c(O)c1 | 0 to 20
Nc1ccc(-c2ccncc2)nc1N | 252 to 254
CC1CCC(=NN(C)c2ccccc2)c2ncc(C(=O)O)c(=O)n21 (stereo unspecified) | 196 to 198
COc1cccnc1CCCCNc1nc(=O)c(C(O)c2ccc(C)nc2)c[nH]1 (stereo unspecified) | 82
COCOCc1cccc2c(=O)c(C(=O)O)c(-c3ccccc3)oc12 | 142 to 143
CC1(C)C(=O)Nc2ccc(C(=O)O)cc21 | > 250
COC(=O)c1cc(C)ccc1NC(=O)N(C)C | 92
COC(=O)CCC(=O)c1cc(C(C)C)c(Oc2nnnn2-c2ccccc2)c(C(C)C)c1 | 122 to 123
CON1CCC2(CC1)NC(=O)C(c1cc(-c3ccc(Cl)cc3)c(F)cc1C)=C2OC(=O)C(C)(C)C | 150 to 151
Cc1c(-c2ccccc2)c(N2CC[C@H](N(C)C)C2)c2oc(C(=O)N(C)CCc3ccccc3)nc2c1C#N | 138 to 141
COc1ccc(CN(CCN(C)CCCNC(=NCCCOc2cccc(CN3CCCCC3)c2)NC#N)c2ccccn2)cc1 | 62 to 65
COC1OCC[C@@H]1NC(=O)[C@H](Cc1ccccc1)NC(=O)OCc1ccccc1 (stereo partly specified) | 140 to 142
Fc1ccc(-c2[nH]cc(CCCN3CCN(Cc4ccccc4)CC3)c2-c2ccncc2)cc1 | 153 to 154
CCCC(C)Oc1cc(-n2c(=O)cc(C(F)(F)F)n(C)c2=O)c(F)cc1Cl (stereo unspecified) | 94 to 97
Cn1c(C(F)(F)F)cc(=O)n(-c2ccc(Cl)c3nc(N4CCCCC4)sc23)c1=O | 102 to 104
COC(=O)c1nnc(Cl)cc1Cl | 57 to 59.5
COC(=O)c1ccc(OC)cc1S | 35 to 37
O=C1CCCc2[nH]c3c(F)cccc3c21 | 222 to 224
CCOC(=O)c1c(N2CCN(C=O)CC2)c2cc(F)ccc2n(Cc2ccccc2)c1=O | 206
CN1C(=O)C(NC(=O)CCc2ccccc2)N=C(N(C)C2CCCCC2)c2ccccc21 (stereo unspecified) | 167 to 168
CC(=O)Nc1nnc(SCC(O)(Cn2cncn2)c2ccc(Cl)cc2Cl)s1 (stereo unspecified) | 132

SMILES | melting point [°C]
COc1ccc(C[C@@H](CO)NC(=O)c2ccnc(-n3nc(-c4cccnc4)c4ccccc4c3=O)c2)cc1OC | 135 to 137
Oc1ccc(Cn2ccnc2)c2cccnc12 | 182
Cc1ccc(S(=O)(=O)Oc2ccc(S(=O)(=O)C3Cc4ccccc4C3Cl)cc2)cc1 (stereo unspecified) | 176
COC(=O)c1ccccc1C(=O)c1ccc(CBr)cc1 | 88.2 to 91.5
COc1ccc2cc(NCc3ccc(OCc4ccccc4)cc3)ccc2c1 | 139 to 141
COC(=O)c1cc(O)nn1C1CCCCC1 | 195 to 196
COc1c(S(N)(=O)=O)cccc1S(=O)(=O)NC(=O)Nc1nc(C)cc(C)n1 | 218
CNC(=O)c1cccnc1N | 140 to 142
COc1ccc(CC(=O)Nc2ccc3sc(C)nc3c2Cl)cc1 | 173 to 174
CCOc1cc2c(cc1OCC)C1CC(=O)C(CC)CN1CC2 (stereo unspecified) | 115 to 118
O=C1c2c(OCc3ccccc3)c(OCc3ccccc3)cc(OCc3ccccc3)c2-c2nn(CCNCCO)c3ccc(Cl)c1c23 | 164 to 167
Cc1nc(Cl)c2c(c1O)COC2(C)c1ccccc1 (stereo unspecified) | 246
CC1(C)Nc2ccccc2NC1=S | 140 to 142
CCCC[C@H](NC(=O)[C@H](CC(C)C)NC(=O)c1ccc(F)cc1F)C(=O)CSCc1ccco1 | 97 to 98
CCc1cc(OCc2ccc3oc(-c4ccccc4C(=O)O)nc3c2)c2c(n1)CCCC2 | 229 to 231
COc1ccc2c(c1O)C13CCN(CC4CC4)C(C2)C1(Cc1ccccc1)CCC(=O)C3 (stereo unspecified) | 122 to 124
COc1cc(OC)nc(NC(=O)NS(=O)(=O)c2ncccc2OS(=O)(=O)N(C)C)n1 | 155 to 157
CCN(CC)c1ccnc2sc(C(N)=O)c(N)c12 | 127 to 129
COc1ccccc1C(=CC#N)c1ccccc1OC | 99 to 100
CC(Oc1ccc(C(F)(F)F)cc1)c1ccnc2ncnn12 (stereo unspecified) | 100 to 102
O=C1C2=C(CCCC2)C(=O)N1c1ccc(Cl)c(O)c1 | 236 to 238
